According to ChEMBL document CHEMBL1201862, “PubChem BioAssay data set” (2004):
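In this assay, cells in 96-well plates receive the compound at five concentrations for 48 hours. Endpoints are linearly interpolated between the surrounding concentrations. The concentration for 50% growth inhibition is given as GI50.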 Active and inactive are the calls of the source. Rule as the data show it: active = GI50 up to about 1.1 µM and inactive = higher.

How the values were obtained:
Test in all cases: inhibition of tumour cell growth, NCI panel, 48 h
[1] = test system: 786-0
[2] = test system: A549
[3] = test system: ACHN
[4] = test system: BT-549
[5] = test system: CAKI-1
[6] = test system: CCRF-CEM
[7] = test system: COLO 205
[8] = test system: DU-145
[9] = test system: EKVX
[10] = test system: HCC 2998
[11] = test system: HCT-116
[12] = test system: HCT-15
[13] = test system: HOP-62
[14] = test system: HOP-92
[15] = test system: HT-29
[16] = test system: Hs-578T
[17] = test system: IGROV-1
[18] = test system: K562
[19] = test system: KM12
[20] = test system: LOX IMVI
[21] = test system: M14
[22] = test system: MCF7
[23] = test system: MDA-MB-231
[24] = test system: MDA-MB-435
[25] = test system: MOLT-4
[26] = test system: Malme-3M
[27] = test system: NCI-H226
[28] = test system: NCI-H23
[29] = test system: NCI-H522
[30] = test system: OVCAR-3
[31] = test system: OVCAR-4
[32] = test system: OVCAR-5
[33] = test system: OVCAR-8
[34] = test system: PC-3
[35] = test system: RPMI-8226
[36] = test system: RXF 393
[37] = test system: SF-268
[38] = test system: SF-295
[39] = test system: SF-539
[40] = test system: SK-MEL-28
[41] = test system: SK-MEL-2
[42] = test system: SK-MEL-5
[43] = test system: SK-OV-3
[44] = test system: SN12C
[45] = test system: SNB-19
[46] = test system: SNB-75
[47] = test system: SR
[48] = test system: SW-620
[49] = test system: T47D
[50] = test system: TK-10
[51] = test system: U-251
[52] = test system: UACC-257
[53] = test system: UACC-62
[54] = test system: UO-31
[55] = test system: A498
[56] = test system: HL-60
[57] = test system: NCI/ADR-RES

Compound: CC(C)(C)c1cc(C(=O)Nc2cc(Br)c(Br)cc2S(N)(=O)=O)cc(C(C)(C)C)c1O
- GI50 [1]: 11 µM (inactive)
- GI50 [2]: 9.12 µM (inactive)
- GI50 [3]: 11.3 µM (inactive)
- GI50 [4]: 12.2 µM (inactive)
- GI50 [5]: 9.93 µM (inactive)
- GI50 [6]: 4.28 µM (inactive)
- GI50 [7]: 5.08 µM (inactive)
- GI50 [8]: 15.3 µM (inactive)
- GI50 [9]: 12.8 µM (inactive)
- GI50 [10]: 5.07 µM (inactive)
- GI50 [11]: 8.24 µM (inactive)
- GI50 [12]: 3.85 µM
- GI50 [13]: 20.9 µM (inactive)
- GI50 [14]: 6.52 µM (inactive)
- GI50 [15]: 5.01 µM (inactive)
- GI50 [16]: 11.9 µM (inactive)
- GI50 [17]: 12.6 µM (inactive)
- GI50 [18]: 5.71 µM (inactive)
- GI50 [19]: 5.77 µM (inactive)
- GI50 [20]: 6.46 µM (inactive)
- GI50 [21]: 15.2 µM (inactive)
- GI50 [22]: 5.37 µM (inactive)
- GI50 [23]: 9.51 µM (inactive)
- GI50 [24]: 12.3 µM (inactive)
- GI50 [25]: 4.39 µM (inactive)
- GI50 [26]: 13.5 µM (inactive)
- GI50 [27]: 13.1 µM (inactive)
- GI50 [28]: 20 µM (inactive)
- GI50 [29]: 11.8 µM (inactive)
- GI50 [30]: 7.91 µM (inactive)
- GI50 [31]: 12.1 µM (inactive)
- GI50 [32]: 12.4 µM (inactive)
- GI50 [33]: 13.3 µM (inactive)
- GI50 [34]: 10.7 µM (inactive)
- GI50 [35]: 8.32 µM (inactive)
- GI50 [36]: 11.1 µM (inactive)
- GI50 [37]: 13.3 µM (inactive)
- GI50 [38]: 14.2 µM (inactive)
- GI50 [39]: 15.8 µM (inactive)
- GI50 [40]: 13.4 µM (inactive)
- GI50 [41]: 10 µM (inactive)
- GI50 [42]: 12.4 µM (inactive)
- GI50 [43]: 16.4 µM (inactive)
- GI50 [44]: 7.24 µM (inactive)
- GI50 [45]: 13.3 µM (inactive)
- GI50 [46]: 9.31 µM (inactive)
- GI50 [47]: 6 µM (inactive)
- GI50 [48]: 9.42 µM (inactive)
- GI50 [49]: 3.24 µM (inactive)
- GI50 [50]: 12.9 µM (inactive)
- GI50 [51]: 12.5 µM (inactive)
- GI50 [52]: 17.9 µM (inactive)
- GI50 [53]: 6.08 µM (inactive)
- GI50 [54]: 10.5 µM (inactive)

Compound: COC(=O)C1=C(C(=O)OC)SC(=C2S[C@@H]3[C@@H]4C[C@H]([C@@H]3S2)[C@H]2C(=O)OC(=O)[C@@H]42)S1
- GI50 [1]: > 100 µM (inactive)
- GI50 [55]: > 100 µM (inactive)
- GI50 [2]: > 100 µM (inactive)
- GI50 [3]: > 100 µM (inactive)
- GI50 [4]: > 100 µM (inactive)
- GI50 [5]: > 100 µM (inactive)
- GI50 [6]: > 100 µM (inactive)
- GI50 [7]: > 100 µM (inactive)
- GI50 [8]: > 100 µM (inactive)
- GI50 [9]: > 100 µM (inactive)
- GI50 [10]: > 100 µM (inactive)
- GI50 [11]: > 100 µM (inactive)
- GI50 [12]: > 100 µM
- GI50 [56]: > 100 µM (inactive)
- GI50 [13]: > 100 µM (inactive)
- GI50 [14]: > 100 µM (inactive)
- GI50 [15]: > 100 µM (inactive)
- GI50 [16]: > 100 µM (inactive)
- GI50 [17]: > 100 µM (inactive)
- GI50 [18]: > 100 µM (inactive)
- GI50 [19]: > 100 µM (inactive)
- GI50 [20]: > 100 µM (inactive)
- GI50 [21]: > 100 µM (inactive)
- GI50 [22]: > 100 µM (inactive)
- GI50 [23]: > 100 µM (inactive)
- GI50 [24]: > 100 µM (inactive)
- GI50 [25]: > 100 µM (inactive)
- GI50 [26]: > 100 µM (inactive)
- GI50 [27]: > 100 µM (inactive)
- GI50 [28]: > 100 µM (inactive)
- GI50 [29]: > 100 µM (inactive)
- GI50 [57]: > 100 µM (inactive)
- GI50 [30]: > 100 µM (inactive)
- GI50 [31]: > 100 µM (inactive)
- GI50 [32]: > 100 µM (inactive)
- GI50 [33]: > 100 µM (inactive)
- GI50 [34]: > 100 µM (inactive)
- GI50 [35]: > 100 µM (inactive)
- GI50 [36]: > 100 µM (inactive)
- GI50 [37]: > 100 µM (inactive)
- GI50 [38]: > 100 µM (inactive)
- GI50 [39]: > 100 µM (inactive)
- GI50 [40]: > 100 µM (inactive)
- GI50 [41]: > 100 µM (inactive)
- GI50 [42]: > 100 µM (inactive)
- GI50 [44]: > 100 µM (inactive)
- GI50 [45]: > 100 µM (inactive)
- GI50 [48]: > 100 µM (inactive)
- GI50 [49]: > 100 µM (inactive)
- GI50 [50]: > 100 µM (inactive)
- GI50 [51]: > 100 µM (inactive)
- GI50 [52]: > 100 µM (inactive)
- GI50 [53]: > 100 µM (inactive)
- GI50 [54]: > 100 µM (inactive)
